Results reported in ChEMBL document CHEMBL4480432, “Expansion of a novel lead targeting M. tuberculosis DHFR as antitubercular agents” (Bioorg Med Chem, 2019).

Assays:
Dihydrofolate reductase [1] = target: T1, Dihydrofolate reductase (Mycobacterium tuberculosis, UniProt P9WNX1); assay: Inhibition of Mycobacterium tuberculosis H37Rv DHFR expressed in Escherichia coli BL21(DE3) assessed as reduction in consumption of NADPH using DHF as substrate preincubated for 1 min followed by DHF addition and measured for 2 mins by spectrophotometric method
T1 sequence (P9WNX1 whole entry): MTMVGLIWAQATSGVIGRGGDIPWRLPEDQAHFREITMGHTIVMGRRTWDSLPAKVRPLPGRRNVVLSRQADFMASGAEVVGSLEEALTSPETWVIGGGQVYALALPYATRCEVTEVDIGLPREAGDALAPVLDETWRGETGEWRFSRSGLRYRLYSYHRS

[2] = Sub-acute toxicity in albino Wistar rat assessed as change in serum protein level at 1.25 mg/kg, po administered for 28 days measured post last dose (reference value: […]); format: organism-based; conditions: in vivo, 672 h
[3] = Sub-acute toxicity in albino Wistar rat assessed as effect on somatomotor system at 1.25 to 10 mg/kg, po administered for 28 days; format: organism-based; conditions: in vivo, 672 h
[4] = Sub-acute toxicity in albino Wistar rat assessed as change in hemoglobin level at 5 mg/kg, po administered for 28 days measured post last dose (reference value: 12.14 +/- 1.45 g%); format: organism-based; conditions: in vivo, 672 h
[5] = Sub-acute toxicity in albino Wistar rat assessed as change in hemoglobin level at 2.5 mg/kg, po administered for 28 days measured post last dose (reference value: 12.14 +/- 1.45 g%); format: organism-based; conditions: in vivo, 672 h
[6] = Sub-acute toxicity in albino Wistar rat assessed as effect on clinical changes at 1.25 to 10 mg/kg, po administered for 28 days; format: organism-based; conditions: in vivo, 672 h
Dihydrofolate reductase [7] = target: T2, Dihydrofolate reductase (Homo sapiens, UniProt P00374); assay: Inhibition of human DHFR assessed as reduction in consumption of NADPH using DHF as substrate preincubated for 1 min followed by DHF addition and measured for 2 mins by spectrophotometric method
T2 sequence (P00374 whole entry): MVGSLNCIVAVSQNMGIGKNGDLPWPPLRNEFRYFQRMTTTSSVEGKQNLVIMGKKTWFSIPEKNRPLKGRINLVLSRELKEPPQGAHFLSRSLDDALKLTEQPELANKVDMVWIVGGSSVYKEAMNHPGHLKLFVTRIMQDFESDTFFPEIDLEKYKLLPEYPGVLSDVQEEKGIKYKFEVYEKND

[8] = Sub-acute toxicity in albino Wistar rat assessed as change in serum protein level at 5 mg/kg, po administered for 28 days measured post last dose (reference value: […]); format: organism-based; conditions: in vivo, 672 h
[9] = Sub-acute toxicity in albino Wistar rat assessed as effect on water intake at 1.25 to 10 mg/kg, po administered for 28 days measured post last dose; format: organism-based; conditions: in vivo, 672 h
[10] = Sub-acute toxicity in albino Wistar rat assessed as change in AST level at 2.5 mg/kg, po administered for 28 days measured post last dose (reference value: 22.5 +/- 1.76 U/L); format: organism-based; conditions: in vivo, 672 h
[11] = Sub-acute toxicity in albino Wistar rat assessed as change in AST level at 1.25 mg/kg, po administered for 28 days measured post last dose (reference value: 22.5 +/- 1.76 U/L); format: organism-based; conditions: in vivo, 672 h
[12] = Sub-acute toxicity in albino Wistar rat assessed as lethargy at 1.25 to 10 mg/kg, po administered for 28 days; format: organism-based; conditions: in vivo, 672 h
[13] = Sub-acute toxicity in albino Wistar rat assessed as change in respiration at 1.25 to 10 mg/kg, po administered for 28 days; format: organism-based; conditions: in vivo, 672 h
[14] = Sub-acute toxicity in albino Wistar rat assessed as change in Urea level at 5 mg/kg, po administered for 28 days measured post last dose (reference value: 24.54 +/- 2.12 mg/dl); format: organism-based; conditions: in vivo, 672 h
[15] = Sub-acute toxicity in albino Wistar rat assessed as diarrhea at 1.25 to 10 mg/kg, po administered for 28 days; format: organism-based; conditions: in vivo, 672 h
[16] = Sub-acute toxicity in albino Wistar rat assessed as adverse effect at 1.25 to 10 mg/kg, po administered for 28 days; format: organism-based; conditions: in vivo, 672 h
[17] = Sub-acute toxicity in albino Wistar rat assessed as change in CAT level per mg protein at 5 mg/kg, po administered for 28 days measured post last dose (reference value: 28.45 +/- 2.1 U); format: organism-based; conditions: in vivo, 672 h
[18] = Sub-acute toxicity in albino Wistar rat assessed as change in SOD level per mg protein at 10 mg/kg, po administered for 28 days measured post last dose (reference value: 4.85 +/- 0.34 U); format: organism-based; conditions: in vivo, 672 h
[19] = Sub-acute toxicity in albino Wistar rat assessed as change in serum protein level at 2.5 mg/kg, po administered for 28 days measured post last dose (reference value: […]); format: organism-based; conditions: in vivo, 672 h
[20] = Sub-acute toxicity in albino Wistar rat assessed as change in ALT level at 5 mg/kg, po administered for 28 days measured post last dose (reference value: 12.19 +/- 1.78 U/L); format: organism-based; conditions: in vivo, 672 h
[21] = Sub-acute toxicity in albino Wistar rat assessed as convulsion at 1.25 to 10 mg/kg, po administered for 28 days; format: organism-based; conditions: in vivo, 672 h
[22] = Sub-acute toxicity in albino Wistar rat assessed as change in colour at 1.25 to 10 mg/kg, po administered for 28 days; format: organism-based; conditions: in vivo, 672 h
[23] = Sub-acute toxicity in albino Wistar rat assessed as change in Urea level at 2.5 mg/kg, po administered for 28 days measured post last dose (reference value: 24.54 +/- 2.12 mg/dl); format: organism-based; conditions: in vivo, 672 h
[24] = Sub-acute toxicity in albino Wistar rat assessed as change in CAT level per mg protein at 10 mg/kg, po administered for 28 days measured post last dose (reference value: 28.45 +/- 2.1 U); format: organism-based; conditions: in vivo, 672 h
[25] = Sub-acute toxicity in albino Wistar rat assessed as effect on eyes at 1.25 to 10 mg/kg, po administered for 28 days; format: organism-based; conditions: in vivo, 672 h
[26] = Sub-acute toxicity in albino Wistar rat assessed as change in ALT level at 1.25 mg/kg, po administered for 28 days measured post last dose (reference value: 12.19 +/- 1.78 U/L); format: organism-based; conditions: in vivo, 672 h
[27] = Sub-acute toxicity in albino Wistar rat assessed as effect on neurological changes at 1.25 to 10 mg/kg, po administered for 28 days; format: organism-based; conditions: in vivo, 672 h
[28] = Sub-acute toxicity in albino Wistar rat assessed as change in AST level at 10 mg/kg, po administered for 28 days measured post last dose (reference value: 25 +/- 1.76 U/L); format: organism-based; conditions: in vivo, 672 h
[29] = Sub-acute toxicity in albino Wistar rat assessed as mortality at 1.25 to 10 mg/kg, po administered for 28 days; format: organism-based; conditions: in vivo, 672 h
[30] = Sub-acute toxicity in albino Wistar rat assessed as tremors at 1.25 to 10 mg/kg, po administered for 28 days; format: organism-based; conditions: in vivo, 672 h
[31] = Sub-acute toxicity in albino Wistar rat assessed as change in hemoglobin level at 10 mg/kg, po administered for 28 days measured post last dose (reference value: 12.14 +/- 1.45 g%); format: organism-based; conditions: in vivo, 672 h
[32] = Sub-acute toxicity in albino Wistar rat assessed as change in body weight at 1.25 to 10 mg/kg, po administered for 28 days; format: organism-based; conditions: in vivo, 672 h

## CC(=O)c1c(C)n(Cc2ccccc2)c2ccc(OCc3cn(-c4ccc(Br)cc4)nn3)cc12
Dihydrofolate reductase [1]
  IC50: 6.79 µM
[2]
  Activity: 6.65 mg/dL
[3]
  Activity: Non-Toxic
[4]
  Activity: 13.45 g%
[5]
  Activity: 12.83 g%
[6]
  Activity: Non-Toxic
Dihydrofolate reductase [7]
  IC50: 125 µM
[8]
  Activity: 7.54 mg/dL
[9]
  Activity: Non-Toxic
[10]
  Activity: 24 U/L
[11]
  Activity: 23.43 U/L
[12]
  Activity: Non-Toxic
[13]
  Activity: Non-Toxic
[14]
  Activity: 26.43 mg/dL
[15]
  Activity: Non-Toxic
[16]
  Activity: Non-Toxic
[17]
  Activity: 31.34 U
[18]
  Activity: 5.56 U
[19]
  Activity: 7.32 mg/dL
[20]
  Activity: 14.32 U/L
[21]
  Activity: Non-Toxic
[22]
  Activity: Non-Toxic
[23]
  Activity: 26.54 mg/dL
[24]
  Activity: 32.45 U
[25]
  Activity: Non-Toxic
[26]
  Activity: 13.09 U/L
[27]
  Activity: Non-Toxic
[28]
  Activity: 26.98 U/L
[29]
  Activity: Non-Toxic
[30]
  Activity: Non-Toxic
[31]
  Activity: 13.98 g%
[32]
  Activity: Toxic
